The test system of one test is A375 (melanoma). The test is described as follows: In vitro cytotoxic activity (MTT) assay, A375. The format is cell-based. Particulars: Homo sapiens, A-375, 96 hours exposure, read-out: IC50, 50% inhibition of cell proliferation. The method, then:
(§1) Compounds 1-15 were screened for their in vitro cytotoxic activity utilizing a 3-(4,5-dimethyl-thiazol-2-yl)-2,5-diphenyltetrazolium bromide (MTT) assay against selected cancer human cell lines consisting of PC3 (prostate), HCT116 (colon), A375 (melanoma), H1299 (lung), MIAPaCa-2 (pancreas), HL60 (leukemia), MCF7 (breast), MDA-MB-231 (breast) (T. Mosmann, J. Immunol. Meth., 1983, 65, 55-63). The cells were cultured at 37° C. in RMPI1640 medium supplemented with 10% fetal bovine serum, 50 IU/mL penicillin, and 50 μg/mL streptomycin in a 5% CO2 incubator. All cells were sub-cultured 3 times/week by trypsinization. Viable cells were seeded and allowed to adhere for 12 h before a test drug was added in 96-well plates at an initial density of 1.0×10^5 cells/mL. Tumour cell lines were separately exposed to various concentrations of the tested compounds followed by incubation at a temperature of 37° C. during 96 h inside a medium of fresh RMPI 1640. Cells were subsequently incubated at 37° C. using MTT at 0.5 mg/mL during 4 h. After removal of supernatant, formazan crystals were dissolved in isopropanol and the optical density was measured at 570 nm. CX-4945 was used as a positive control.

The target in test [1] is T1, recombinant human CK2 (RRββ-holoenzyme) (Homo sapiens, UniProt P68400).
T1 construct: purchased Millipore
The test is described as follows: CK2 kinase assay ([γ-33P]ATP, filter plate). The format is biochemical. Particulars: final ATP 15 μM, 10 min at 30° C.; read-out: protein kinase CK2 IC50. The method, then: CK2 Kinase Assay was conducted using the protocol as described in Pierre F. et al; J. Med. Chem. 2011, 54, 635-654. The tested compounds in aqueous solution were added at a volume of 10 μL to a reaction mixture comprising 10 μL of assay dilution buffer (ADB; 20 mM MOPS, pH 7.2, 25 mM β-glycerol phosphate, 5 mM EGTA, 1 mM sodium orthovanadate, and 1 mM dithiothreitol), 10 μL of substrate peptide (RRRDDDSDDD, dissolved in ADB at a concentration of 1 mM), 10 μL of recombinant human CK2 (RRββ-holoenzyme, 25 ng dissolved in ADB; Millipore). Reactions were initiated by the addition of 10 μL of ATP solution (90% 75 mMMgCl2, 75 μM ATP (final ATP concentration:15 μM) dissolved in ADB; 10% [γ-33P] ATP (stock 1mCi/100 μL; 3000 Ci/mmol (Perkin-Elmer) and maintained for 10 min at 30° C. The reactions were quenched with 100 μL of 0.75% phosphoric acid and then transferred to and filtered through a phosphor cellulose filter plate (Millipore). After washing each well five times with 0.75% phosphoric acid, the plate was dried under vacuum for 5 min and, following the addition of 15 μL of scintillation fluid to each well, the residual radioactivity was measured using a Wallac […]. The IC50 values were derived from eight concentrations of test inhibitors.

For another test, the system named is MDA-MB-231 (breast). Description: In vitro cytotoxic activity (MTT) assay, MDA-MB-231. The format is cell-based. Conditions: Homo sapiens, 96 hours exposure, read-out: IC50, 50% inhibition of cell proliferation. As to the method:
as §1

The subject of the next test is HL60 (leukemia). The test is described as follows: In vitro cytotoxic activity (MTT) assay, HL60. In kind it is cell-based. Particulars: Homo sapiens, HL-60, 96 hours exposure, read-out: IC50, 50% inhibition of cell proliferation. The method, then: as §1
In a further test the test system is MIAPaCa-2 (pancreas). The test is described as follows: In vitro cytotoxic activity (MTT) assay, MIAPaCa-2. The format is cell-based. Conditions: Homo sapiens, MIA PaCa-2, 96 hours exposure, read-out: IC50, 50% inhibition of cell proliferation. The method, then:
as §1

The next test deals with HCT116 (colon). The test is described as follows: In vitro cytotoxic activity (MTT) assay, HCT116. The format is cell-based. Particulars: Homo sapiens, HCT-116, 96 hours exposure, read-out: IC50, 50% inhibition of cell proliferation. The method, then: as §1
Another test relates to MCF7 (breast). Description: In vitro cytotoxic activity (MTT) assay, MCF7. The format is cell-based. Particulars: Homo sapiens, 96 hours exposure, read-out: IC50, 50% inhibition of cell proliferation. The method, then: as §1
The next test concerns H1299 (lung). The test is described as follows: In vitro cytotoxic activity (MTT) assay, H1299. In kind it is cell-based. Conditions: Homo sapiens, NCI-H1299, 96 hours exposure, read-out: IC50, 50% inhibition of cell proliferation. The method, then:
as §1

In another test the test system is PC3 (prostate). The test is described as follows: In vitro cytotoxic activity (MTT) assay, PC3. The format is cell-based. Particulars: Homo sapiens, 96 hours exposure, read-out: IC50, 50% inhibition of cell proliferation. As to the method: as §1

Molecules are shown by their SMILES. pIC50: −log10 of the molar value.

T1 sequence (P68400 whole entry): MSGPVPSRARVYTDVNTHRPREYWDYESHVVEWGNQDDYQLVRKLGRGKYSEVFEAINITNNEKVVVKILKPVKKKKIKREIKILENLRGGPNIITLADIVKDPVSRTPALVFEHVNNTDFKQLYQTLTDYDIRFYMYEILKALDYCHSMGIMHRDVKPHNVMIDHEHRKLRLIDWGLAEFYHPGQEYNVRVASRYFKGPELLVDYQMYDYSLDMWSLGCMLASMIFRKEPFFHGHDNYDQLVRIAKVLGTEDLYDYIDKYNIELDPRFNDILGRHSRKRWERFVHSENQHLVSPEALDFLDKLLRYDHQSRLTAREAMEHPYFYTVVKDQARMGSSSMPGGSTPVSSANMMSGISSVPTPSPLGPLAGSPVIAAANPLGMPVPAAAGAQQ
T1 sequence (P67870 whole entry partner): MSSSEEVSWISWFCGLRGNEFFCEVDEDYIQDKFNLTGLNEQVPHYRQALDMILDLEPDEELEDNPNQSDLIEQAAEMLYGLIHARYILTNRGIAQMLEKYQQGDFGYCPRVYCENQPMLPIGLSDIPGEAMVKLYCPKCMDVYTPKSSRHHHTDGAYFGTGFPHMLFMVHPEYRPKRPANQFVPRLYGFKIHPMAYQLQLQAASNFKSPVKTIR

With `O=C(O)c1cc2c(nc(Nc3cccc(Cl)c3)c3cnccc32)[nH]1` [Compound 1, 5-((3-chlorophenyl)amino)-3H-pyrrolo[2,3-c][2,7]naphthyridine-2-carboxylic acid], the pIC50 in the test on A375 (melanoma) is 5.57; in [1], 7.80; with MDA-MB-231 (breast), 5.39; in the test with HL60 (leukemia), 5.62; in the test with MIAPaCa-2 (pancreas) it was 6.10; in the test on HCT116 (colon) it was 6.05. For the same molecule, the pIC50 in the test with MCF7 (breast) is 5.48; in the test with H1299 (lung) it was 5.96; in the test on PC3 (prostate), 5.59.

Source of the values: patent US11884667B1, “Substituted pyrrolo[2,3-c][2,7]naphthyridines as CK2 inhibitors” (KING FAISAL UNIVERSITY, priority 2023, dated 2024).
